# Source: US20230103444A1 (The Regents of the University of Colorado, a Body Corporate, priority 2020, published 2023)
# Where two headings read alike, the source gives them in different places.
# How the values were obtained:
# [1] = tested on: vimentin promoter activity; test: VimPro-GFP reporter 3D high-content imaging in tumor organoids; type: cell-based, human; conditions: 72 h
# Method: After validating hits 5-7 against CHD1L mediated TCF transcription, the ability of these compounds to reverse EMT and other malignant properties in CRC were evaluated. E-cadherin and vimentin are putative biomarkers for the epithelial and mesenchymal phenotypes, respectively. [McDonald et al., 2015] Loss of E-cadherin and gain of vimentin are also clinical biomarkers of poor prognosis. [Yun et al., 2014; Richardson et al., 2012; Dhanasekaran et al., 2001; Kashiwagi et al., 2010; Toiyama et al., 2013] Accordingly, lentiviral promoter driven reporters for E-cadherin (pCDH1-EcadPro-RFP) and vimentin (pCDH1-VimPro-GFP) were developed, which faithfully report E-cadherin and vimentin protein expression, respectively. [Zhou et al., 2016; Abraham et al., 2019] SW620 cells transduced with either EcadPro-RFP or VimPro-GFP were cultured as tumor organoids for 72 h, reaching a diameter of 600 μm. Tumor organoids were treated with compounds 5-7 for an additional 72 h to determine the effective concentration 50 percent (EC50) for modulating promoter activity. Changes in promoter expression was quantified using a 3D confocal image […] based high-content analysis algorithm (FIG. 2A-2B). [Zhou et al., 2016; Abraham et al., 2019]
# Stable VimPro-GFP or EcadPro-RFP SW620 reporter cells were generated using pCDH imPro-GFP-EF1-puro virus or pCDH-EcadPro-mCherry-EF1-puro virus as previously reported. [Zhou et al., 2016; Abraham et al., 2019] The stable fluorescently labeled reporter cells were used to generate tumor organoids as described herein. Tumor organoids were treated with CHD1L inhibitors at 10 μM for an additional 72 h. Following treatment, tumor organoids were stained with 16 μM of Hoechst 33342 for 1 h (nuclei stain). Images were taken with a 5× air objective. Z-stacks were set at 26.5 μm apart for a total of 15 optical slices. Imaging and high-content analysis were performed using an Opera Phenix™ and Harmony® software (PerkinElmer, Hopkinton, Mass.). Nuclei were identified within each layer and cells were found with either GFP or mCherry channel. The fluorescence intensities of each channel were calculated and thresholds were set based on the background intensities. Percentages of GFP or mCherry RFP positive cells were calculated and normalized to the DMSO treated group.
# 3D High-Content Imaging and Analysis of EMT Dual-Reporter Activity. Tumor organoids were imaged using the Opera Phenix high-content screening system (PerkinElmer) in confocal mode utilizing a 10× air objective (NA 0.3). […] Organoids were also imaged in Brightfield to segment and perform high-content analysis of dual reporter specific fluorescence intensity. […] Both fluorescent signals were quantified and normalized as previously described. […]
# SW620 tumor organoids [2] = test: Western blot of treated SW620 tumor organoids; type: cell-based, human
# Method: CRC cell lines and homogenized tumor tissue samples from mice were resuspended in RIPA lysis buffer (20 mM Tris-HCl (pH 7.5), 150 mM NaCl, 1 mM Na2EDTA, 1 mM EGTA, 1% NP-40, 1% sodium deoxycholate, 2.5 mM sodium pyrophosphate, 1 mM b-glycerophosphate, 1 mM Na3VO4, 0.1 mM PMSF. Protein concentration was determined using the Pierce™ BCA protein assay kit (ThermoFisher, Waltham, Mass.). Forty micrograms of sample were run on 10% Bis-Tris gels. Following electrophoresis, the proteins were transferred to a nitrocellulose membrane. The membranes were blocked at room temperature with 5% non-fat milk in TBS/Tween® 20 (TBST contains 20 mM Tris, 150 mM NaCl, and 0.1% Tween®20 (Croda International PLC, Snaith, UK) for 1 hour at room temperature. Membranes were washed three times with TBST. Blots were incubated with the appropriate primary antibody in 5% nonfat milk in TBST overnight at 4° C. Membranes were washed three times with TBST and then incubated with appropriate secondary antibody for one hour. Membranes were washed again with TBST three times. Blots were exposed using SuperSignal™West Pico PLUS Chemiluminescent Substrate (ThermoFisher, Waltham, Mass.) and imaged using a ChemiDoc imaging system (Bio-Rad, Hercules, Calif.). [See: Abbott et al., 2020 and its Supplementary Information for Western Blots]
# SW620 tumor organoids [3] = test: Synergy studies with SN38 (LOEWE synergy scores); type: cell-based, human; parameters: key to LOEWE Synergy Score: % response beyond expectation; <-10 antagonism, -10–10 additive, >10 synergy; conditions: for LOEWE Synergy Score: compound at its IC50 (6: 5 μM; 6.3, 6.11: 3 μM)
# Method: Cell based cytotoxicity dose response and combination studies. […] Plates were then incubated for 3 days before treatment.
# (e.g., synergy score 20 corresponds to 20% of response beyond expectation). According to our experience, the synergy scores near 0 gives limited confidence on synergy or antagonism.
# When the synergy score is: • Less than −10: the interaction between two drugs is likely to be antagonism; • From −10 to 10: the interaction between two drugs is likely to be additivity; • Larger than 10: the interaction between two drugs is likely to be synergy.
# [4] = Mouse liver microsome stability; conditions: CD-1, mouse, liver microsomes; for half-life: female, initial study
# Method: Microsome stability. CD-1 mouse microsomes were commercially purchased and the reactions were performed as previously described. […] The master mix was pre-incubated at 37° C. for 5 min, then 1 mM NADPH was added to start the microsomal activity reaction and maintained at 37° C. throughout the time course. Reactions were stopped at 0, 5, 15, 30, 45, and 60 min by adding 200 μL acetonitrile and analyzed by mass spectrometry. The appropriate microsome controls were also performed in the same reaction conditions.
# SW620 tumor organoids [5] = test: Tumor organoid cytotoxicity (CellTiter-Glo 3D); conditions: Homo sapiens
# [6] = SW-620, read-out: Tumor Organoid Cytotoxicity IC50 (μM) SW620
SMILES,"EC50 ([1]; Homo sapiens, SW-620, read-out: EC50 downregulation of vimentin promoter activity, SW620 tumor organoids)",E-cadherin cleavage (marker of apoptosis) (SW620 tumor organoids [2]),"cleaved PARP1, cleaved caspase 8 and cleaved caspase 3 (SW620 tumor organoids [2]; relative to DMSO control)",LOEWE Synergy Score (SW620 tumor organoids [3]; SN38 0.64 nM),LOEWE Synergy Score (SW620 tumor organoids [3]; SN38 16 nM),LOEWE Synergy Score (SW620 tumor organoids [3]; SN38 80 nM),LOEWE Synergy Score (SW620 tumor organoids [3]; SN38 400 nM),LOEWE Synergy Score (SW620 tumor organoids [3]; SN38 2000 nM),LOEWE Synergy Score (SW620 tumor organoids [3]; SN38 10000 nM),LOEWE Synergy Score (SW620 tumor organoids [3]; SN38 […]),"synergism with irinotecan (and SN38), in words (SW620 tumor organoids [3]; killing SW620 tumor organoids)","half-life ([4]; Microsomal Half-life (min), female CD-1 mouse microsomes)",half-life ([4]; half-life in liver microsomes),IC50 (SW620 tumor organoids [5]; [6]),"downregulation of vimentin promoter activity (VimPro-GFP), in words ([1]; SW620 or HCT116 tumor organoids)",potency of SN38 combination relative to SN38 alone (SW620 tumor organoids [3]; killing SW620 tumor organoids),"half-life at 10 μM ([4]; pH 7.4, in vitro liver microsome half-life, second series, different liver microsome preparation)","IC50 (SW620 tumor organoids [5]; SW-620, 72 h, read-out: 3 D Cytotoxicity 72 hr IC50 (μM) SW620)"
COc1ccc(-c2nc(S(=O)(=O)c3ccccc3)c(S(C)(=O)=O)o2)cc1 [Compound 5],15.6 ± 1.7 µM,E-cadherin is cleaved,–,–,–,–,–,–,–,–,–,–,–,–,–,–,–,–
"Cc1cc(Nc2ccc(NC(=O)Cc3cccs3)cc2)nc(N2CCCC2)n1 [Compound 6, N-(4-((6-methyl-2-(pyrrolidin-1-yl)pyrimidin-4-yl)amino)phenyl)-2-(thiophen-2-yl)acetamide]",–,E-cadherin is cleaved,"increases in cleaved PARP1, cleaved caspase 8, and cleaved caspase 3",−5,35,45,41,28,16,36,synergism,17 min,< 20 min,4.6 µM,–,–,–,–
"Cc1cc(Nc2ccc(NC(=O)c3c[nH]c4ccccc34)cc2)nc(N2CCCC2)n1 [Compound 6.3, N-(4-((6-methyl-2-(pyrrolidin-1-yl)pyrimidin-4-yl)amino)phenyl)-1H-indole-3-carboxamide]",–,–,–,4,36,54,48,35,25,31,synergism,–,–,3.8 µM,downregulation of vimentin,150 fold,98 min,3.6 µM
